{
  "source": "patent US12221432B2",
  "about": "“Estrogen receptor antagonist” (CHIA TAI TIANQING PHARMACEUTICAL GROUP CO., LTD., priority 2018, dated 2025)",
  "key": {"CYP1A2": {"target": "T1, CYP1A2 (Homo sapiens, UniProt P05177)", "T1 construct": "tissue Corning Co., Ltd; host or cells: human liver microsomes", "T1 sequence (P05177 1-516)": "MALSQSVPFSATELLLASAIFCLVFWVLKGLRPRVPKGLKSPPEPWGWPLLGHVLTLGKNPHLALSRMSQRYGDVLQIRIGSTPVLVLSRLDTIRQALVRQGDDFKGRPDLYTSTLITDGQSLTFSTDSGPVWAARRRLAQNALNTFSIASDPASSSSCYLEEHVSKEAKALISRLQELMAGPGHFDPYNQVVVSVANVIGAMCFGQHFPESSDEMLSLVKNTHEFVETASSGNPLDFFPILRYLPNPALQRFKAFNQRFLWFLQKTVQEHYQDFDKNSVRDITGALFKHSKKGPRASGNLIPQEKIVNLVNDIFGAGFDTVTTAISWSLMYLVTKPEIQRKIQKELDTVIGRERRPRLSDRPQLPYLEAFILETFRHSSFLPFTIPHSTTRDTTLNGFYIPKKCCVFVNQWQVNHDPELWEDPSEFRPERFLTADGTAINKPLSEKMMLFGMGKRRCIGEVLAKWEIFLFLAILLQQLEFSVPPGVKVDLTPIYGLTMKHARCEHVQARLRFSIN", "assay": "Cytochrome P450 isoenzyme inhibition, CYP1A2", "type": "in vitro ADME", "details": "human liver microsomes; read-out: CYP enzyme inhibition (IC50) 1A2", "source_text": "Experimental objective: To determine the inhibitory effect of the test compound on the activity of human liver microsomal cytochrome P450 isoenzymes (CYP1A2, CYP2C9, CYP2C19, CYP2D6 and CYP3A4; Corning Co., Ltd.). […]"}, "[1]": {"assay": "Metabolic stability in liver microsome (SD rat)", "type": "in vitro ADME, SD rats", "experimental": "(§1) Objective: To determine the metabolic stability of test compounds in the liver microsomes of humans, CD-1 5 mice and SD rats (Corning Co., Ltd., Miaotong Biological Technology Co., Ltd., Miaotong Biological Technology Co., Ltd.).\n(§2) Procedures: Firstly, eight 96-well plates were prepared, and named T0, T5, T10, T20, T30, T60, NCF60 and BLANK; except for BLANK (added with buffer at 10 μL/well), the plates were added with the solution of compounds at 10 μL/well. Prepared microsomes were added to the 7 plates (80 μL/well), except for the T0 10 plate. The NCF60 plate was added with the buffer at 10 μL/well, and incubated in a 37° C. water bath, and timing was started:\n(§3) Prepared NADPH cofactor working solution was aliquoted into a 96-well shallow-well plate serving as a loading slot. Each plates was added with the solution to at 10 μL/well by a 96-channel pipette and incubated in a 37° C. water bath to start the reaction:\n(§4) At each time point, termination solution (cold acetonitrile containing 100 ng/mL Tolbutamide and 100 ng/mL Labetalol as internal standard) was added at 300 μL/well to stop the reaction, and the mixture was mixed well; the mixture was centrifuged at 4000 rpm for 20 minutes to precipitate the protein; the supernatant was transferred at 100 μL/well to a new 96-well plate containing 300 μL/well of HPLC water with a 96-channel pipette, and the mixture was mixed well. […]"}, "[2]": {"assay": "Metabolic stability in liver microsome (CD-1 mouse)", "type": "in vitro ADME, CD-1 mice", "experimental": "as §1, §2, §3, §4"}},
  "note": "Structures can show the parent of a compound that is named as a salt.",
  "data": [
    {"smiles": "CC/C(=C(/c1ccc(OCCNC/C=C/C(=O)N(C)C)nc1)c1[nH]c2ccccc2c1Cl)c1ccccc1", "note": "[Compound 3 monohydrochloride]", "values": [
      {"measurement": "IC50", "setting": "CYP1A2", "value": 45.1, "unit": "µM"},
      {"measurement": "Stability in liver microsomes", "setting": "[1]", "value": 35},
      {"measurement": "Stability in liver microsomes", "setting": "[2]", "value": 43}
    ]}
  ]
}
